Patent US20220380319A1 (Bial - R&D Investments, S.A., priority 2019, published 2022)
≈ marks a conversion by molar mass, not a printed value.

Key:
acid ceramidase = target: T1, acid ceramidase (Homo sapiens, UniProt Q13510); assay: Acid ceramidase inhibition, biochemical fluorescent assay with cell lysates overexpressing acid ceramidase, substrate Rbm14-12; details: substrate Rbm14-12 6.3 μM
T1 construct: Cell lysates overexpressing acid ceramidase were used as the enzyme source; expressed in transfected cells
T1 sequence (Q13510 22-395): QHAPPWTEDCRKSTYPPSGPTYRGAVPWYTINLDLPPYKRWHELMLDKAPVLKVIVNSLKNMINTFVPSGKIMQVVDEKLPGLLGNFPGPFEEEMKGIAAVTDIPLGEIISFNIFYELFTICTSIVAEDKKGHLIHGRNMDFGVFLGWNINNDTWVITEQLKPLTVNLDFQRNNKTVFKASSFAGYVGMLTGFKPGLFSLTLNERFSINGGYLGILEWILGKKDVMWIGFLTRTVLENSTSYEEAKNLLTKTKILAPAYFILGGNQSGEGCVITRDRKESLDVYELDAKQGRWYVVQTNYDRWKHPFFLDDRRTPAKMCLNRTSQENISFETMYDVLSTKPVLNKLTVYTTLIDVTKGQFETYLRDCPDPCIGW
Method in brief: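 Lysate of cells overexpressing acid ceramidase (10 μg protein) preincubated with compound dose series 1 hr at RT in 25 mM NaAC, 100 mM NaCl, pH 4.5, then reacted 1 hr with 6.3 μM Rbm14-12. Stopped with NaIO4/glycine buffer pH 10.6, fluorescence ex360/em446; IC50 by four-parameter fit.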

[1] = Compound solubility in water
[2] = pH 4.5, 1 hr preincubation at RT

IC50 (acid ceramidase; pH 4.5) [nM]	solubility [1] [µg/mL]	IC50 (acid ceramidase; [2]) [nM]	Compound
200 to 1000	26 (≈ 57.2 µM)	–	COc1nc2ccc(N3CCOCC3)cc2n1C(=O)NCCCCn1ccc(C(C)(C)C)n1 [Example 188b, N-(4-(3-(tert-butyl)-1H-pyrazol-1-yl)butyl)-2-methoxy-6-morpholino-1H-benzo[d]imidazole-1-carboxamide]
< 200	1 (≈ 2.15 µM)	–	CC(C)C(=O)N1CCN(c2cccc3c2ncn3C(=O)NCCCC2(C(F)(F)F)CC2)CC1 [Example 234, 4-(4-iso-Butyrylpiperazin-1-yl)-N-(3-(1-(trifluoromethyl)cyclopropyl)propyl)-1H-benzo[d]imidazole-1-carboxamide]
< 200	27 (≈ 68.4 µM)	–	CC(C)C#CCNC(=O)n1cnc2c(N3CC(N4CCN(C)CC4)C3)cccc21 [Example 298, N-(4-Methylpent-2-ynyl)-4-(3-(4-methyl-piperazin-1-yl)azetidin-1-yl)-1H-benzo[d]imidazole-1-carboxamide]
–	15 (≈ 40.5 µM)	< 200	COc1nc2cccnc2n1C(=O)NCCCCn1ccc(C(C)(C)C)n1 [Example 135a, N-(4-(3-(tert-Butyl)-1H-pyrazol-1-yl)butyl)-2-methoxy-3H-imidazo[4,5-b]pyridine-3-carboxamide]
< 200	33 (≈ 84.3 µM)	–	CN1CC2CC1CN2c1cccc2c1ncn2C(=O)NCCOc1ccccc1 (stereo not drawn) [Example 295, 4-(5-Methyl-2,5-diazabicyclo[2.2.1]heptan-2-yl)-N-(2-phenoxyethyl)-1H-benzo[d]imidazole-1-carboxamide]
200 to 1000	42 (≈ 94.9 µM)	–	COc1nc2cc(F)c(N3CCN(C4CN(C)C4)CC3)cc2n1C(=O)NCC#CC(C)C [Example 320b, 5-fluoro-2-methoxy-6-(4-(1-methylazetidin-3-yl)piperazin-1-yl)-N-(4-methylpent-2-yn-1-yl)-1H-benzo[d]imidazole-1-carboxamide]
< 200	20 (≈ 45.7 µM)	–	CC(=O)N1CCN(c2cccc3c2ncn3C(=O)NCCCC2(C(F)(F)F)CC2)CC1 [Example 235, 4-(4-Acetylpiperazin-1-yl)-N-(3-(1-(trifluoromethyl)cyclopropyl)propyl)-1H-benzo[d]imidazole-1-carboxamide]
–	12.9 (≈ 38.6 µM)	< 200	O=C(NCCc1ccccc1)n1cnc2nc(C(F)(F)F)ccc21 [Example 66b, N-phenethyl-5-(trifluoromethyl)-1H-imidazo[4,5-b]pyridine-1-carboxamide]
200 to 1000	32 (≈ 89.5 µM)	–	CC(C)CCNC(=O)n1cnc2c(N3CCN(C(C)C)CC3)cccc21 [Example 207, N-iso-Pentyl-4-(4-isopropylpiperazin-1-yl)-1H-benzo[d]imidazole-1-carboxamide]
< 200	16 (≈ 36.5 µM)	–	COCCOc1nc2ccc(N3CCOCC3)cc2n1C(=O)NCCCc1ccccc1 [Example 190b, 2-(2-methoxyethoxy)-6-morpholino-N-(3-phenylpropyl)-1H-benzo[d]imidazole-1-carboxamide]
–	25 (≈ 64.4 µM)	< 200	CN1CCN(c2cccc3c2ncn3C(=O)NCc2ccn3cccc3c2)CC1 [Example 347, N-(Indolizin-7-ylmethyl)-4-(4-methylpiperazin-1-yl)-1H-benzo[d]imidazole-1-carboxamide]
200 to 1000	5 (≈ 13 µM)	–	C[C@@H]1CN(c2cccc3c2ncn3C(=O)NCCCC(F)(F)F)C[C@H](C)O1 [Example 226, 4-((2R,6S)-2,6-dimethylmorpholino)-N-(4,4,4-trifluorobutyl)-1H-benzo[d]imidazole-1-carboxamide]
–	7.2 (≈ 29.1 µM)	< 200	CCCCNC(=O)n1cnc2cc(OC)ccc21 [Example 51a, N-Butyl-5-methoxy-1H-benzo[d]imidazole-1-carboxamide]
–	0.3 (≈ 0.928 µM)	< 200	CC(C)Oc1cccc2c1ncn2C(=O)NCCc1ccccc1 [Example 90, 4-iso-Propoxy-N-phenethyl-1H-benzo[d]imidazole-1-carboxamide]
200 to 1000	26 (≈ 60.4 µM)	–	N#CCCN1CCN(c2cccc3c2ncn3C(=O)NCCC2CCC(F)(F)C2)CC1 (stereo not drawn) [Example 288, 4-(4-(2-Cyanoethyl)piperazin-1-yl)-N-(2-(3,3-difluorocyclopentyl)ethyl)-1H-benzo[d]imidazole-1-carboxamide]
–	14 (≈ 39.4 µM)	200 to 1000	CC(C)CCNC(=O)n1cnc2c(N3CCN(C4CC4)CC3)cccc21 [Example 147, 4-(4-Cyclopropylpiperazin-1-yl)-N-iso-pentyl-1H-benzo[d]imidazole-1-carboxamide]
< 200	20 (≈ 52.4 µM)	–	CC(C)C#CCNC(=O)n1cnc2c(N3CCN(C4COC4)CC3)cccc21 [Example 307, N-(4-Methylpent-2-yn-1-yl)-4-(4-(oxetan-3-yl)-piperazin-1-yl)-1H-benzo[d]imidazole-1-carboxamide]
< 200	12 (≈ 27.9 µM)	–	COc1nc2cc(N3CCOCC3)ccc2n1C(=O)NCCCc1ccc(F)cc1F [Example 224b, N-(3-(2,4-difluorophenyl)propyl)-2-methoxy-5-morpholino-1H-benzo[d]-imidazole-1-carboxamide]
200 to 1000	46 (≈ 95.7 µM)	–	COc1nc2cc(F)c(N3CCN(C4CN(C)C4)CC3)cc2n1C(=O)NCCCc1ccccc1 [Example 319b, 5-fluoro-2-methoxy-6-(4-(1-methylazetidin-3-yl)piperazin-1-yl)-N-(3-phenylpropyl)-1H-benzo[d]imidazole-1-carboxamide]
–	1 (≈ 2.45 µM)	< 200	COc1nc2ccc(N3CCOCC3)cc2n1C(=O)NCCCCc1ccccc1 [Example 133a, 2-Methoxy-6-morpholino-N-(4-phenylbutyl)-1H-benzo[d]imidazole-1-carboxamide]
–	28.7 (≈ 88.2 µM)	> 1000	CCC(C)NC(=O)n1c(OC)nc2ccc(-c3cncnc3)cc21 (stereo not drawn) [Example 109a, N-(sec-Butyl)-2-methoxy-6-(pyrimidin-5-yl)-1H-benzo[d]imidazole-1-carboxamide]
< 200	28 (≈ 69.4 µM)	–	CN1CC2CCC1CN2c1cccc2c1ncn2C(=O)NCCCc1ccccc1 (stereo not drawn) [Example 247, 4-(5-Methyl-2,5-diazabicyclo[2.2.2]octan-2-yl)-N-(3-phenylpropyl)-1H-benzo[d]imidazole-1-carboxamide]
200 to 1000	1 (≈ 3.07 µM)	–	CC(C)CCNC(=O)n1cnc2c(N3CC(C)(C#N)C3)cccc21 [Example 165, 4-(3-Cyano-3-methylazetidin-1-yl)-N-isopentyl-1H-benzo[d]imidazole-1-carboxamide]
200 to 1000	33 (≈ 85.8 µM)	–	COc1nc2cc(N3CCOCC3)ccc2n1C(=O)NCCCc1ccco1 [Example 228b, N-(3-(furan-2-yl)propyl)-2-methoxy-5-morpholino-1H-benzo[d]imidazole-1-carboxamide]
–	6 (≈ 17.1 µM)	< 200	COc1nc2ccc(-c3cncnc3)cc2n1C(=O)NC1CCCCC1 [Example 111a, N-Cyclohexyl-2-methoxy-6-(pyrimidin-5-yl)-1H-benzo[d]imidazole-1-carboxamide]
> 1000	25 (≈ 60.5 µM)	–	COc1nc2cc(N3CCOCC3)ccc2n1C(=O)NCCCc1ccc(F)nc1 [Example 232b, N-(3-(6-fluoropyridin-3-yl)propyl)-2-methoxy-5-morpholino-1H-benzo[d]imidazole-1-carboxamide]
< 200	30 (≈ 77 µM)	–	CN1C[C@@H]2C[C@H]1CN2c1cccc2c1ncn2C(=O)NCCCc1ccccc1 [Example 244, 4-((1S,4S)-5-Methyl-2,5-diazabicyclo[2.2.1]heptan-2-yl)-N-(3-phenylpropyl)-1H-benzo[d]imidazole-1-carboxamide]
–	0.2 (≈ 0.463 µM)	200 to 1000	CC(C)CCNC(=O)n1cnc2c(N3CCN(c4cccc5cncn45)CC3)cccc21 [Example 156, 4-(4-(Imidazo[1,5-a]pyridin-5-yl)piperazin-1-yl)-N-iso-pentyl-1H-benzo[d]imidazole-1-carboxamide]
–	10 (≈ 33.9 µM)	< 200	COc1nc2ccccc2n1C(=O)NCCc1ccccc1 [Example 3, 2-Methoxy-N-phenethyl-1H-benzo[d]imidazole-1-carboxamide]
200 to 1000	32 (≈ 97.4 µM)	–	CC(C)CCNC(=O)n1cnc2c(C3CCN(C)CC3)cccc21 [Example 182, N-iso-Pentyl-4-(1-methylpiperidin-4-yl)-1H-benzo[d]imidazole-1-carboxamide]

Compound	IC50 (acid ceramidase; pH 4.5) [nM]	solubility [1] [µg/mL]	IC50 (acid ceramidase; [2]) [nM]
CC(C)CCNC(=O)n1cnc2c(N3CC4CCC(C3)N4C)cccc21 [Example 161, N-iso-Pentyl-4-(8-methyl-3,8-diazabicyclo[3.2.1]-octan-3-yl)-1H-benzo[d]imidazole-1-carboxamide]	200 to 1000	35 (≈ 98.5 µM)	–
CC(C)CCNC(=O)n1cnc2c(N3CC4CC(C3)N4C)cccc21 [Example 160, N-iso-Pentyl-4-(6-methyl-3,6-diazabicyclo[3.1.1]-heptan-3-yl)-1H-benzo[d]imidazole-1-carboxamide]	–	35 (≈ 103 µM)	200 to 1000
CC#CCNC(=O)n1cnc2c(N3CCN(C)CC3)cccc21 [Example 281, N-(But-2-yn-1-yl)-4-(4-methylpiperazin-1-yl)-1H-benzo[d]imidazole-1-carboxamide]	200 to 1000	32 (≈ 103 µM)	–
